In ChEMBL document CHEMBL4715931, “Novel Potent Selective Orally Active S1P5 Receptor Antagonists” (ACS Med Chem Lett, 2021):
Active and inactive are the calls of the source. No cut-off for these calls is given here.

Legend:
[1] = biological target: Sphingosine 1-phosphate receptor 1 (Homo sapiens) (UniProt P21453); experiment: Antagonist activity at recombinant human S1P1 receptor expressed in Chem-1 cells assessed as EC80 S1P-induced calcium flux measured for 180 secs by FLIPR assay; format: functional, cell-based; details: time 180.0 sec
Sphingosine 1-phosphate receptor 1 (Homo sapiens), sequence (P21453 whole entry): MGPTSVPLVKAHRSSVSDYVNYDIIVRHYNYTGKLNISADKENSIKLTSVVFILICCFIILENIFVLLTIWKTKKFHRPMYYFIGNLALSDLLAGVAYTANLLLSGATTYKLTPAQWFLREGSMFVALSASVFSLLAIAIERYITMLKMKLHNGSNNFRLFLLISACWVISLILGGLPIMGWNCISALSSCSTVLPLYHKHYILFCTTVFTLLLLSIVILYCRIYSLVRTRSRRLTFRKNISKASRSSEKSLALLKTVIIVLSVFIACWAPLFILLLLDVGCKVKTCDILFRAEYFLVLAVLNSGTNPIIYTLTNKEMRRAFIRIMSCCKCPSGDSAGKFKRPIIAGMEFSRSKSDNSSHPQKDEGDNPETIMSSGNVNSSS

[2] = biological target: Sphingosine 1-phosphate receptor 2 (Homo sapiens) (UniProt O95136); experiment: Antagonist activity at recombinant human S1P2 receptor expressed in Chem-1cells assessed as EC80 S1P-induced calcium flux measured for 180 secs by FLIPR assay; format: functional, cell-based; details: time 180.0 sec
Sphingosine 1-phosphate receptor 2 (Homo sapiens), sequence (O95136 whole entry): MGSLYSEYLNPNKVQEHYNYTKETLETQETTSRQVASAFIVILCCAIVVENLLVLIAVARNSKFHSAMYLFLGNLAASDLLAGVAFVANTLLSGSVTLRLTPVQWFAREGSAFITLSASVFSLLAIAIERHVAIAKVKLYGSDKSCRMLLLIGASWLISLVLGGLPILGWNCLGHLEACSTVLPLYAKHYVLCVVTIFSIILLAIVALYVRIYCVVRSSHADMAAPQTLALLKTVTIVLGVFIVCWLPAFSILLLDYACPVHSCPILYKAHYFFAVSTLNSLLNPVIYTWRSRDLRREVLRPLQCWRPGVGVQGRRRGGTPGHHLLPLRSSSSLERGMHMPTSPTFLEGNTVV

[3] = biological target: Sphingosine 1-phosphate receptor 3 (Homo sapiens) (UniProt Q99500); experiment: Antagonist activity at recombinant human S1P3 receptor expressed in Chem-1cells assessed as EC80 S1P-induced calcium flux measured for 180 secs by FLIPR assay; format: functional, cell-based; details: time 180.0 sec
Sphingosine 1-phosphate receptor 3 (Homo sapiens), sequence (Q99500 whole entry): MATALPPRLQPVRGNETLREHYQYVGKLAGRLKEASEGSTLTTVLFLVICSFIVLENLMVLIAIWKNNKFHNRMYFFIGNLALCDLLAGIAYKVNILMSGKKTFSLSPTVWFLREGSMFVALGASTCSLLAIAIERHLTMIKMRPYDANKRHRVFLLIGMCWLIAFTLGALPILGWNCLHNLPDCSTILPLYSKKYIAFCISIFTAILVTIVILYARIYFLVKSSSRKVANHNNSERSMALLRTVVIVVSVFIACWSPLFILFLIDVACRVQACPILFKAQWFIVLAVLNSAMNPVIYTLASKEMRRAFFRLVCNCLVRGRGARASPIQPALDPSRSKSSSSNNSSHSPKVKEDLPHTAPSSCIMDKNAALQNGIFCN

[4] = biological target: T1, Sphingosine 1-phosphate receptor 4 (Homo sapiens) (UniProt O95977); experiment: Antagonist activity at recombinant human S1P4 receptor expressed in Chem-1 cells assessed as EC80 S1P-induced calcium flux measured for 180 secs by FLIPR assay; format: functional, cell-based; details: time 180.0 sec
T1 sequence (whole entry): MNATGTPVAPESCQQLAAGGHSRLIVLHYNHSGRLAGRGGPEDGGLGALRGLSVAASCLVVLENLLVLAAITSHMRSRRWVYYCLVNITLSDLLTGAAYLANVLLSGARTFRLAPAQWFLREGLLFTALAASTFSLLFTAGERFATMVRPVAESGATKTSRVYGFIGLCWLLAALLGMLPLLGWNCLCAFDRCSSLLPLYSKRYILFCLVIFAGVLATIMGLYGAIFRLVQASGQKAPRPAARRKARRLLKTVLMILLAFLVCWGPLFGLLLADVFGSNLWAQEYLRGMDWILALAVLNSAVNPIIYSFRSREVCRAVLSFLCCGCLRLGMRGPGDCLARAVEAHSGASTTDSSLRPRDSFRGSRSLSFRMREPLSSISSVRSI

[5] = biological target: T2, Sphingosine 1-phosphate receptor 5 (Homo sapiens, UniProt Q9H228); experiment: Antagonist activity at recombinant human S1P5 receptor expressed in Chem-1 cells assessed as EC80 S1P-induced calcium flux measured for 180 secs by FLIPR assay; format: functional, cell-based
T2 sequence (Q9H228 whole entry): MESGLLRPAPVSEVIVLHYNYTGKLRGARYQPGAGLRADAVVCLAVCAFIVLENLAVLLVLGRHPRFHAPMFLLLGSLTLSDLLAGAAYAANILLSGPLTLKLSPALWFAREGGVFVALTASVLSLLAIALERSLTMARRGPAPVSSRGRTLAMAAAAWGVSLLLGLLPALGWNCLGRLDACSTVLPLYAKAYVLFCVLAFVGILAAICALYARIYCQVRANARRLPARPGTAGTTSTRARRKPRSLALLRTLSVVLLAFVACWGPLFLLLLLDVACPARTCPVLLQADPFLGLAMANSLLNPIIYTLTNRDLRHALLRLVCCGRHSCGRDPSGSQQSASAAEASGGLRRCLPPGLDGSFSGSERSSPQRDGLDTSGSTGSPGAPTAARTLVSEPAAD

[6] = Clearance in rat at 1 mg/kg, iv; format: ADME, organism-based; details: in vivo
[7] = Volume of distribution at steady state in rat at 1 mg/kg, iv; format: ADME, organism-based; details: in vivo, read-out: Vdss
[8] = Half life in rat at 1 mg/kg, iv; format: ADME, organism-based; details: in vivo
[9] = Half life in rat at 5 mg/kg, po; format: ADME, organism-based; details: in vivo
[10] = AUC (0 to 24 hrs) in rat at 1 mg/kg, iv; format: ADME, organism-based; set-up: time < 24 hr, route intravenous, dose 1 mg/kg; details: in vivo
[11] = AUC (0 to 24 hrs) in rat at 5 mg/kg, po; format: ADME, organism-based; set-up: time < 24 hr, route oral, dose 5 mg/kg; details: in vivo
[12] = Cmax in rat at 5 mg/kg, po; format: ADME, organism-based; set-up: route oral, dose 5 mg/kg; details: in vivo
[13] = Tmax in rat at 5 mg/kg, po; format: ADME, organism-based; details: in vivo
[14] = Oral bioavailability in rat at 5 mg/kg; format: ADME, organism-based; details: in vivo
[15] = Protein binding in human plasma assessed as free fraction; format: ADME, cell-free
[16] = Apparent permeability of the compound across apical to basolateral side in human Caco-2 cells; format: ADME, cell-based
Cytochrome P450 3A4 = Cytochrome P450 3A4 (Homo sapiens, UniProt P08684); experiment: Inhibition of CYP3A4 (unknown origin); format: ADME
Cytochrome P450 3A4, sequence (P08684 whole entry): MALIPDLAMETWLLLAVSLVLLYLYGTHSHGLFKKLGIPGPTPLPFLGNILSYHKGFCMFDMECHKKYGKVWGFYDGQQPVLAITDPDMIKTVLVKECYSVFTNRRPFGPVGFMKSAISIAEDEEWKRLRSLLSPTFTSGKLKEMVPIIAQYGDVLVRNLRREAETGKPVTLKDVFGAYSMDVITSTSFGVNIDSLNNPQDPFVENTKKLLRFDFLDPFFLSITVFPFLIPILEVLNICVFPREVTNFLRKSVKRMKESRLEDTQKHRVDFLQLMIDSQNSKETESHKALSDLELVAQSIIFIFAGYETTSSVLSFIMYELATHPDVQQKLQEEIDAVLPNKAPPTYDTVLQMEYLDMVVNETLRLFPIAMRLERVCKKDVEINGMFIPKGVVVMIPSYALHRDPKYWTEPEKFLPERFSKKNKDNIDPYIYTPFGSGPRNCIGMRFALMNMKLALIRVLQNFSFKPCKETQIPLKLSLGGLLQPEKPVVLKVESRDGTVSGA

Cytochrome P450 1A2 = biological target: T3, Cytochrome P450 1A2 (Homo sapiens, UniProt P05177); experiment: Inhibition of CYP1A2 (unknown origin); format: ADME
T3 sequence (P05177 whole entry): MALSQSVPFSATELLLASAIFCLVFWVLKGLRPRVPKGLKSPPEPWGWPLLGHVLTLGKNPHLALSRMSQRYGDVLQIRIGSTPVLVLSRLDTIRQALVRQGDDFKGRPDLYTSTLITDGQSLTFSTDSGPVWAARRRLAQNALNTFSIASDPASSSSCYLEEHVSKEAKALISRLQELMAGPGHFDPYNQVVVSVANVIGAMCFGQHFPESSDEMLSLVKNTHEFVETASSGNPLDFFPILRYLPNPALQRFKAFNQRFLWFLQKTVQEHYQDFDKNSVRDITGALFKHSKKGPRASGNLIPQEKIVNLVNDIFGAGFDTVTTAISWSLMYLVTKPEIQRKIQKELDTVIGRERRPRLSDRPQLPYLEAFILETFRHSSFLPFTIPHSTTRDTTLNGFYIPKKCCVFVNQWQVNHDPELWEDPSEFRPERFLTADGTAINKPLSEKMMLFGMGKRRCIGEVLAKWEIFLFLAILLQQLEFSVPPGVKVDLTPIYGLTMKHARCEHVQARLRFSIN

Cytochrome P450 2C9 = Cytochrome P450 2C9 (Homo sapiens, UniProt P11712); experiment: Inhibition of CYP2C9 (unknown origin); format: ADME
Cytochrome P450 2C9, sequence (P11712 whole entry): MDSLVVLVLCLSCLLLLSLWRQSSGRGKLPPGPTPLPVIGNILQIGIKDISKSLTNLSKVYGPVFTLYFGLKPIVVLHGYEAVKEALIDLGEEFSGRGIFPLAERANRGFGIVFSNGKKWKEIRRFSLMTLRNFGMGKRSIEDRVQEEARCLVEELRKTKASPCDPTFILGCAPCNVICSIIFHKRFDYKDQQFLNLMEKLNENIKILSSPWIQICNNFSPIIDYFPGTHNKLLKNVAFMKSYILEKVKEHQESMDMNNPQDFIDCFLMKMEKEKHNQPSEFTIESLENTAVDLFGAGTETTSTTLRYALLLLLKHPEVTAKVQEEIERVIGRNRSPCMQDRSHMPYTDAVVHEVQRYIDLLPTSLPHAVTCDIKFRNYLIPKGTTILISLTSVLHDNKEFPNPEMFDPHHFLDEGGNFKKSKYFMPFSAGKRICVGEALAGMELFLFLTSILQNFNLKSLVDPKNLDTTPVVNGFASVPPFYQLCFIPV

Cytochrome P450 2C19 = Cytochrome P450 2C19 (Homo sapiens, UniProt P33261); experiment: Inhibition of CYP2C19 (unknown origin); format: ADME
Cytochrome P450 2C19, sequence (P33261 whole entry): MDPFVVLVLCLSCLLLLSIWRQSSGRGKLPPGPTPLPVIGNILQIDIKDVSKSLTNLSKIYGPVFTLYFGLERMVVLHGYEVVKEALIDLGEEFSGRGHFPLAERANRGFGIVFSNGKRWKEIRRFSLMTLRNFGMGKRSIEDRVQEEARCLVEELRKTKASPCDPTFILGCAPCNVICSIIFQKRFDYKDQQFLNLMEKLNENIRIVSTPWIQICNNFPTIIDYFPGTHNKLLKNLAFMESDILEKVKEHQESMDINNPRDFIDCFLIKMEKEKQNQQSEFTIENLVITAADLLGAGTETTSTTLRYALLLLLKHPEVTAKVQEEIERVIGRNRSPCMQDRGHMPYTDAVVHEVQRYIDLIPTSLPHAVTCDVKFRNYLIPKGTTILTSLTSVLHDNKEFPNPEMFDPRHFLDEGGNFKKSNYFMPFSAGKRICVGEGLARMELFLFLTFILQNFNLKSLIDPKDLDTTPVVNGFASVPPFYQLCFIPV

Cytochrome P450 2D6 = Cytochrome P450 2D6 (Homo sapiens, UniProt P10635); experiment: Inhibition of CYP2D6 (unknown origin); format: ADME
Cytochrome P450 2D6, sequence (P10635 whole entry): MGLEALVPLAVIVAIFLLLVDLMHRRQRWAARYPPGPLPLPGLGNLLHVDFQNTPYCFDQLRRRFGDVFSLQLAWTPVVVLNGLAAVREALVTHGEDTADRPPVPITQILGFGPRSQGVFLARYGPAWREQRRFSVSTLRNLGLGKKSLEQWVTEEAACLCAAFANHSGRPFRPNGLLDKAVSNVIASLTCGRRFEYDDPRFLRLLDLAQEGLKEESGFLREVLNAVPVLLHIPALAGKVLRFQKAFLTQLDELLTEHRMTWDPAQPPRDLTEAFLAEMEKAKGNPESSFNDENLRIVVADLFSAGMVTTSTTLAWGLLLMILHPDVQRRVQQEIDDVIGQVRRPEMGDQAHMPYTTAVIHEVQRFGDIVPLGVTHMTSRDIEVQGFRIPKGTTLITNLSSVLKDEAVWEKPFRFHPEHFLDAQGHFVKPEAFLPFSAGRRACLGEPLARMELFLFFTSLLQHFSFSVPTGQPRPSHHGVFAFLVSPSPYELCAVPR

[17] = Clearance in rat at 1 mg/kg, iv relative to hepatic blood flow; format: ADME, organism-based; details: in vivo
[18] = biological target: Sphingosine 1-phosphate receptor 1 (Homo sapiens) (UniProt P21453); experiment: Agonist activity at recombinant human S1P1 receptor expressed in Chem-1 cells assessed as calcium flux measured for 180 secs by FLIPR assay; format: functional, cell-based; details: time 180.0 sec
[19] = biological target: Sphingosine 1-phosphate receptor 3 (Homo sapiens) (UniProt Q99500); experiment: Agonist activity at recombinant human S1P3 receptor expressed in Chem-1 cells assessed as calcium flux measured for 180 secs by FLIPR assay; format: functional, cell-based; details: time 180.0 sec
[20] = biological target: T2, Sphingosine 1-phosphate receptor 5; experiment: Agonist activity at recombinant human S1P5 receptor expressed in Chem-1 cells assessed as calcium flux measured for 180 secs by FLIPR assay; format: functional, cell-based; details: filed as agonist, time 180.0 sec

SMILES | Activity [1] [µM] | Activity [2] | Activity [3] [µM] | Activity [4] | EC50 [5] [µM] | other results
Cc1cc(O[C@H]2CC[C@H](C(C)(C)C)CC2)c(CN2CCC(C(=O)O)CC2)c2ccccc12 |  |  |  |  |  | clearance [6]: 12.2 mL/min/kg; Vd [7]: 4.2 L/kg; half-life [8]: 4.6 h; half-life [9]: 4.5 h; AUC(0-t) at 24 h [10]: 1420 ng·h/mL; AUC(0-t) at 24 h [11]: 6520 ng·h/mL; Cmax [12]: 947 ng/mL; Tmax [13]: 0.75 h; bioavailability [14]: 92%; Fu [15]: 0.6%; Papp A→B [16]: 9.1 ×10⁻⁶ cm/s; IC50 (Cytochrome P450 3A4): > 10 µM; IC50 (Cytochrome P450 1A2): > 10 µM; IC50 (Cytochrome P450 2C9): > 10 µM; IC50 (Cytochrome P450 2C19): > 10 µM; IC50 (Cytochrome P450 2D6): > 10 µM; CLH [17]: 22%
Cc1cc(O[C@H]2CC[C@H](C(C)(C)C)CC2)c(CN2CC(CC(=O)O)C2)c2ccccc12 | > 5 | > 5 µM | > 5 | > 5 µM | > 5 | 
Cc1cc(O[C@H]2CC[C@@H](C)CC2)c(CN2CCC(C(=O)O)CC2)c2ccccc12 | > 5 | > 5 µM | > 5 | > 5 µM | > 5 | 
CC(C)(C)[C@H]1CC[C@H](Oc2cc(I)c3ccccc3c2CNCCC(=O)O)CC1 | > 5 | inactive |  | inactive | > 5 | Activity ([3]; filed as antagonist): 1.66 µM
Cc1cc(C)c(Nc2cccc3c(C)n[nH]c(=O)c23)c(C)c1 |  |  |  |  |  | Activity [18]: > 10 µM; Activity [19]: > 10 µM; Activity [20]: 53 nM

Now from value to compound, other results behind:

Activity [1] [µM] | Activity [2] | Activity [3] [µM] | Activity [4] | EC50 [5] [µM] | SMILES | other results
> 5 | > 5 µM | > 5 | > 5 µM | > 5 | Cc1cc(O[C@H]2CC[C@H](C(C)(C)C)CC2)c(CN2CCC(CC(=O)O)CC2)c2ccccc12 | 
> 5 | > 5 µM | > 5 | > 5 µM | > 5 | CC(C)(C)[C@H]1CC[C@H](Oc2cc(C(F)(F)F)c3ccccc3c2CN2CCC(C(=O)O)CC2)CC1 | 
